# Earlier results in US20130030007A1, “Obesity Small Molecules” (AKRON MOLECULES GMBH, priority 2010, published 2013).
# Non-standard residues stand in square brackets, D forms with d. Residues, ends and D or L forms follow the SMILES beside them. pGlu = O=C1CC[C@@H](C(=O)O)N1; Thz = O=C(O)[C@@H]1CSCN1
# Tested on: human ortholog of Drosophila obesity gene
# Design: key: O: Obesity - obesity pathway interaction; B: validated binding partner
# Conditions: cited from earlier work
row,Molecule,Type: Type of interaction
1,CCCCCCCC/C=C\CCCCCCCC(N)=O [oleylamide],B
2,mahanine,B
3,COc1ccccc1N1CCN(CC(C(=O)NC(C)(C)C)c2ccccc2)CC1 (stereo not drawn) [N-tert-butyl-3-[4-(2-methoxyphenyl)piperazin-1-yl]-2-phenylpropanamide],B
4,C[Si](Cn1cncn1)(c1ccc(F)cc1)c1ccc(F)cc1 [Olymp],O
5,prostaglandin J2,O
6,NCCc1cc(O)c(O)cc1O [Oxidopamine],B
7,Oc1ccc(CC2NCCc3cc(O)c(O)cc32)cc1O (stereo not drawn) [norlaudanosoline],B
8,O=C1OC(=O)[C@H]2[C@@H]1[C@@H]1CC[C@H]2O1 [norcantharidin],B
9,obovatol,B
10,COC(=O)C1=CC[C@@]23CC[C@@H]([C@@](C)(/C=C/C=C(\C)C(=O)O)OC2=O)[C@@]3(OC(C)=O)CC1 [pseudolaric acid B],O
11,maraviroc,B
12,Nc1nc2[nH]cc(CCc3ccc(C(=O)N[C@@H](CCC(=O)O)C(=O)O)cc3)c2c(=O)[nH]1 [LY231514],O
13,Cc1ncc2n1-c1ccc(Cl)cc1C(c1ccccc1F)=NC2 [Midazolam],O
14,CNC(=N)NCCC[C@H](N)C(=O)O [omega-N-Methylarginine],O
15,pheophorbide a,O
16,pifithrin,B
17,CCCCCCCNS(=O)(=O)c1cccc2c(Cl)cccc12,B

row,Molecule,Type: Type of interaction
1,CNCc1nnc2n1-c1ccc(Cl)cc1C(c1ccccc1)=NC2 [mono-N-demethyladinazolam],O
2,Cn1cnc([N+](=O)[O-])c1Sc1ncnc2nc[nH]c12 [Muran],O
3,Cc1c(N)nc([C@H](CC(N)=O)NC[C@H](N)C(N)=O)nc1C(=O)N[C@H](C(=O)N[C@H](C)[C@@H](O)[C@H](C)C(=O)N[C@H](C(=O)NCCc1nc(-c2nc(C(=O)NCCCN[C@@H](C)c3ccccc3)cs2)cs1)[C@@H](C)O)[C@@H](O[C@@H]1O[C@@H](CO)[C@@H](O)[C@H](O)[C@@H]1O[C@H]1O[C@H](CO)[C@@H](O)[C@H](OC(N)=O)[C@@H]1O)c1c[nH]cn1 [Peplomycin],B
4,CCN(CC)CCCC(C)Nc1nc(C)cc(Nc2ccc3nc(C)cc(N)c3c2)n1 (stereo not drawn) [NSC 23766],B
5,COc1ccc2c(c1)[C@@]13CCCC[C@H]1[C@@H](C2)NCC3 [methoxymorphinan],O
6,C/C=C1/C(=O)N[C@@H](C(=O)O)[C@H](C)C(=O)N[C@@H](C(C)C)C(=O)N[C@@H](/C=C/C(C)=C/[C@H](C)[C@H](Cc2ccccc2)OC)[C@H](C)C(=O)N[C@@H](C(=O)O)CCC(=O)N1C [Motuporin],O
7,pentosidine,B
8,neodymium,O
9,O=S(=O)(F)Cc1ccccc1 [PMSF],O
10,C[C@@H]1O[C@H](C[N+](C)(C)C)C[C@H]1O [Muscarine],B
11,CCCC(=O)[O-].[Na+] [NABU],O
12,pindobind,O
13,CC1=C\[C@H](C)C[C@@]2(C)CC[C@@H](O2)[C@@]23CC[C@@](C)(C[C@@H](O2)[C@H]2O[C@](C)(CC2=O)[C@@H](O)[C@@H]2CC[C@@]4(CCC[C@H](O4)[C@@H](C)C(=O)O[C@@H]4C[C@@H]([C@@]5(O)OCC[C@@H](C)[C@H]5O)O[C@@H]4\C=C\1)O2)O3 [Pectenotoxin II],B
14,NC[C@@H]1O[C@H](O[C@H]2[C@@H](O)[C@H](O[C@@H]3[C@@H](O)[C@H](N)C[C@H](N)[C@H]3O[C@H]3O[C@H](CN)[C@@H](O)[C@H](O)[C@H]3N)O[C@@H]2CO)[C@H](N)[C@@H](O)[C@@H]1O [Neomycin],B
15,Nc1ncnc2c1c(-c1cccc(OCc3ccccc3)c1)cn2C1CC(CN2CCC2)C1 (stereo not drawn) [NVP-AEW541],O
16,milbemycin,O

# Same assay, conditions: interaction of the small molecule with the human ortholog(s) / Drosophila gene(s) listed in the same table line; cited from earlier work
row,Molecule,Type: Type of interaction
1,CO[C@@H]1[C@@H](OC(N)=O)[C@@H](O)[C@H](Oc2ccc3c(O)c(NC(=O)c4ccc(O)c(CC=C(C)C)c4)c(=O)oc3c2C)OC1(C)C [novobiocin],O
2,C[C@H](NC(CCCCCCCN)C(=O)O)C(=O)N1CCC[C@H]1C(=O)O (stereo partly drawn) [N-(8-amino-1-carboxyoctyl)-alanyl-proline],O
3,O=c1c(O)c(-c2ccc(O)c(O)c2)oc2cc(O)cc(O)c12 [meletin],B
4,CCC(=O)O[C@@H]1CC(=O)O[C@H](C)C/C=C/C=C/[C@H](O)[C@H](C)C[C@H](CC=O)[C@H](O[C@@H]2O[C@H](C)[C@@H](O[C@H]3C[C@@](C)(O)[C@@H](OC(=O)CC)[C@H](C)O3)[C@H](N(C)C)[C@H]2O)[C@H]1OC [Medemycin],O
5,CN1CCN(CCCN2c3ccccc3Sc3ccccc32)CC1 [Perazine],O
6,COc1cc([C@@H]2c3cc4c(cc3[C@H](O)[C@H]3COC(=O)[C@@H]23)OCO4)cc(OC)c1OC [picropodophyllin],B
7,c1ccc2ccccc2c1 [Naftalen],B
8,c1ccc2c(CC3=NCCN3)cccc2c1 [Naphazoline],O
9,Clc1ccc(COC(Cn2ccnc2)c2ccc(Cl)cc2Cl)c(Cl)c1 (stereo not drawn) [miconazole],O
10,CCC(=O)[C@@]1(C)CC[C@H]2[C@@H]3CCC4=CC(=O)CCC4=C3CC[C@@]21C [Promegestone],O
11,CCOC(=O)[N-]c1cn(N2CCOCC2)n[o+]1 [Molsidomine],B
12,O=C1CC[C@@]2(O)[C@H]3Cc4ccc(O)c5c4[C@@]2(CCN3CC2CC2)[C@H]1O5 [Naltrexone],B
13,NC(Cn1ccc(=O)c(O)c1)C(=O)O (stereo not drawn) [Mimosine],O
14,CC(=O)O[C@H]1C(=O)[C@@]2(C)[C@H]([C@H](OC(=O)c3ccccc3)[C@]3(O)C[C@H](OC(=O)[C@H](O)[C@@H](NC(=O)c4ccccc4)c4ccccc4)C(C)=C1C3(C)C)[C@]1(OC(C)=O)CO[C@@H]1C[C@@H]2O [Paclitaxel],B
15,O=C1CC[C@@H](C(=O)N2CSC[C@H]2C(=O)O)N1 [pidotimod] ([pGlu]-[Thz]-OH),O
16,NCCO [Olamine],B
17,CN(C)c1cccc2c(S(=O)(=O)NCCCCCN)cccc12 [monodansylcadaverine],O
18,Nc1nc2[nH]cc(CCc3ccc(C(=O)N[C@@H](CCC(=O)O)C(=O)O)cc3)c2c(=O)[nH]1 [Pemetrexed],B
19,COc1ccc2[nH]cc(CCNC(C)=O)c2c1 [Melatol],B
20,O=C(Nc1cc2ccccc2cn1)c1ccccc1NCc1ccncc1 [N-3-isoquinolinyl-2-((4-pyridinylmethyl)amino)benzamide],O
21,NCCC(Oc1ccc(C(F)(F)F)cc1)c1ccccc1 (stereo not drawn) [norfluoxetine],B

row,Molecule,Type: Type of interaction
1,COc1c2occc2cc2ccc(=O)oc12 [Methoxsalen],B
2,O=C(O)C[C@H](O)C[C@H](O)/C=C/c1c(C2CC2)nc2ccccc2c1-c1ccc(F)cc1 [NK 104],B
3,CC[C@@H]([C@H](C)O)n1ncn(-c2ccc(N3CCN(c4ccc(OC[C@@H]5CO[C@@](Cn6cncn6)(c6ccc(F)cc6F)C5)cc4)CC3)cc2)c1=O [posaconazole],B
4,O=C(Nc1ccc(OC(F)(F)F)cc1)c1sccc1NCc1ccnc2ccccc12 [OSI 930],O
5,CC(Cc1ccc(O)c(O)c1)C(C)Cc1ccc(O)c(O)c1 (stereo not drawn) [Nordihydroguaiaretic Acid],B
6,CC(CNC(=O)c1cccnc1)NC(=O)c1cccnc1 (stereo not drawn) [nicaraven],O
7,O=C1c2c(O)ccc(O)c2C(=O)c2c(NCCNCCO)ccc(NCCNCCO)c21 [Mitoxantrone],O
8,Cc1nc2nc(N)[nH]c(=O)c2nc1[C@@H](C)Nc1ccc(C[C@H](O)[C@H](O)[C@H](O)CO[C@H]2O[C@H](COP(=O)(O)O[C@@H](CCC(=O)O)C(=O)O)[C@@H](O)[C@H]2O)cc1 [methanopterin],B
9,CNC(=O)[C@@H](Cc1ccccc1)N(C)C(=O)[C@@H](Cc1ccc2ccccc2c1)N(C)C(=O)/C=C/CC(C)(C)N [NN 703],B
10,CC1=CC(=O)c2c(O)cccc2C1=O [plumbagin],B
11,COc1cc2nc(N3CCN(C(=O)c4ccco4)CC3)nc(N)c2cc1OC [Prazosin],O
12,CC(=O)CCCCn1c(=O)c2c(ncn2C)n(C)c1=O [Pentoxifylline],B
13,CCc1nn(CCCN2CCN(c3cccc(Cl)c3)CC2)c(=O)n1CCOc1ccccc1 [Nefazodone],O
14,CC(C)(C(=O)c1cccnc1)c1cccnc1 [Metopiron],O
15,Cc1c(O)cccc1C(=O)N[C@@H](CSc1ccccc1)[C@H](O)CN1C[C@H]2CCCC[C@H]2C[C@H]1C(=O)NC(C)(C)C [Nelfinavir],O
16,c1ccc2c(c1)ccc1ccccc12 [phenanthrene],O
17,CCC[C@H](N[C@@H](C)C(=O)N1[C@H](C(=O)O)C[C@@H]2CCCC[C@@H]21)C(=O)OCC [Perindopril],B
18,NC(=O)c1cccnc1 [Niacinamide],B
19,C=C(C)[C@@H]1CC=C(CO)CC1 [Perillol],B
20,Cc1cccc(C)c1N(Cn1cccn1)C(=O)CCl [metazachlor],B
21,CC[C@@]1([C@@H]2O[C@@H]([C@H]3O[C@@](O)(CO)[C@H](C)C[C@@H]3C)C[C@@H]2C)CC[C@H]([C@]2(C)CC[C@]3(C[C@H](O)[C@@H](C)[C@@H]([C@@H](C)[C@@H](OC)[C@H](C)C(=O)O)O3)O2)O1 [Monensin],O
